Consider 13 compounds from US20220257774A1, “AROMATIC AMINE AR AHD BET TARGETING PROTEIN DEGRADATION CHIMERA COMPOUND AND USE” (HINOVA PHARMACEUTICALS INC., priority 2019, published 2022).

Like-named read-outs stand apart in the source and are kept apart here.

Holding throughout (type): cell-based
Assay [1] has as its target T1, BRD4 (Homo sapiens, UniProt O60885).
T1 construct: CWR22RV1 cells were subcultured in cell culture media; endogenous in cells; host or cells: CWR22RV1 cells
The assay can be described thus: Down-regulation/degradation of BRD4 determined by Western blot in CWR22RV1 cells. The conditions noted are these: concentration 100 nM, 24 h. Here is the method: (§1) The Down-Regulation on the Protein Expression of Androgen Receptors AR and Brd4 Determined by Western Blot CWR22RV1 cells (National Collection of Authenticated Cell Cultures. TCHu100) FBS (Gibco, Cat. No. 10099-141) 0.01M PBS (Biosharp. Cat. No. 162262) RIPM1640 (Hyclone, Cat. No. 308090.01) Penicillin-Streptomycin (Hyclone. Cat. No. SV30010) DMSO (Sigma. Cat. No. D5879) Centrifuge tube, 15 ml (Excell Bio. Cat. No. CS015-0001) Cell culture plate (Excell Bio. Cat. No. CS016-0128) 6-well cell culture cluster (Corning, Cat. No. 3516) RIPA lysate buffer (Beyotime, Cat. No. P0013B) Protein loading buffer (Beyotime, Cat. No. P0015L) CA protein assay kit (Beyotime, Cat. No. P0012) SDS-PAGE gel preparation kit (Chengdu Baihe Technology Co., Ltd. Cat. No. PG112) Anti-β-tubulin mouse mAb (Zen Bioscience, Cat. No. 200608) Androgen Receptor ([…]) XP Rabbit mAb (CST. Cat. No. 5153) Anti-cMyc(D3N8F) Rabbit mAb (CST. Cat. No. 13987) Anti-BRD4(E2A7X) rabbit mAb (CST, Cat. No. 13440) Peroxidase Affinipure(HRP) Goat Anti-Mouse IgG (Zen Bioscience, Cat. No. 511103) Peroxidase Affinipure(HRP) Goat Anti-Rabbit IgG (Zen Bioscience, Cat. No. 511203) TBST (Biosharp. Cat. No. B[…]) ECL chemiluminescence kit (Beyotime, Cat. No. […]1 cells were subcultured in cell culture media, and then the cells in good growth condition were seeded in a 6-well plate at 2 ml/well (1×10^6 cells/well), and cultured overnight in a 37° C., 5% CO2 cell incubator. 2) The drug was prepared as a 10 mM stock solution with dimethyl sulfoxide (DMSO). […] The plate was gently tapped to thoroughly mix. In addition, the experiment included negative control wells (containing equal amount of DMSO) and positive control wells. 3) After culturing 24 hi, the cells were lysed with RIPA cell lysate, and the protein was extracted. […] The first antibody (Androgen Receptor ([…]) XP Rabbit mAb. Anti-cMyc(D3N8F) Rabbit mAb, Anti-BRD4(E2A7X) rabbit mAb and Anti-β-Tubulin Mouse mAb) was added and incubated overnight at 4° C. The membrane was rinsed with TBST solution three times, 10 min for each time. The secondary antibody (horseradish peroxidase labeled goat anti mouse IgG) was added and incubated at room temperature for 2 h, and then the membrane was washed with TBST solution three times, 10 m for each time. Finally. ECL chemiluminescence solution was added, and then photos were taken with automatic chemiluminescence instrument to collect pictures for analysis.
On the technique in general: A western blot detects proteins with antibodies after separation by electrophoresis.

The subject of assay [2] is LNCaP/AR cells. The assay can be described thus: Inhibition of the proliferation of LNCap/AR cells (CCK-8). Conditions: read-out: LNCap/AR IC50. Put shortly: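 LNCaP/AR cells (1000/well, RPMI1640 + 10% FBS) were treated for 6 days at 37 °C with 9-point 3-fold dilutions from 10 μM final, 0.1% DMSO, in duplicate. Viability was read by CCK-8 absorbance at 450 nm after 1 h, and IC50 came from a dose-response-inhibition fit.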

Assay [3] deals with Androgen receptor (AR). The assay can be described thus: Down-regulation/degradation of AR determined by Western blot in CWR22RV1 cells. The conditions noted are these: concentration 100 nM, 24 h. On the procedure:
as §1

The subject of assay [4] is 22RV1 cells. The assay can be described thus: Inhibition of the proliferation of drug-resistant prostate cancer cell 22RV1 (CCK-8). Conditions: 22RV1 cells (enzalutamide-resistant), same method. Put shortly:
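22RV1 cells, 1000/well in RPMI1640 with 10% FBS, treated in duplicate with 9-point 3-fold dilutions from 10 μM (0.1% DMSO final). After 6 days at 37 °C, CCK-8 added for 1 h and OD450 read. IC50 from dose-response inhibition fit.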

The mark [5] stands for this setting: 144 h, LNCaP/AR cells, 6 days culture, CCK-8.
The mark [6] stands for this setting: LNCaP/AR cells, 6 days culture, CCK-8.

`Cc1ccc(-c2c(C)noc2C)cc1N(CCCCCOCC(=O)N[C@H](C(=O)N1C[C@H](O)C[C@H]1C(=O)N[C@@H](C)c1ccc(-c2scnc2C)cc1)C(C)(C)C)c1ccc(-n2ccnc2)c(Br)c1` [Compound 10, (2S,4R)-1-((S)-2-(2-((5-((3-bromo-4-(1H-imidazol-1-yl)phenyl)(5-(3,5-dimethylisoxazol-4-yl)-2-methylphenyl)amino)n-pentyl)oxy)acetylamino)-3,3-dimethylbutyryl)-4-hydroxy-N—((S)-1-(4-(4-methylthiazol-5-yl)phenyl)ethyl)pyrrolidinyl-2-formamide]: in assay [1], the “BRD4 (% degradation)” value is on record as “B (79%-50% of the target protein was degraded)”. In assay [2] (setting [5]), the IC50 was < 100 nM. Besides, the “AR (% degradation)” value in assay [3] is listed as “B (79%-50% of the target protein was degraded)”.
In the case of `Cc1ccc(-c2c(C)noc2C)cc1N(CC1CC(Nc2cc3c(cc2F)C(=O)N(C2CCC(=O)NC2=O)C3=O)C1)c1ccc(C2(C#N)CC2)cc1` (stereo not shown) [Compound 37], the IC50 in assay [4] (Homo sapiens) is 101 to 500 nM; in assay [2] (setting [5]), 501 to 2000 nM. In assay [1], the “BRD4 (% degradation)” value was “D (<20% of the target protein was degraded)”. Besides, the “AR (% degradation)” value in assay [3] was “D (<20% of the target protein was degraded)”.
Consider `Cc1ccc(-c2c(C)noc2C)cc1N(CC1CC(Nc2cc3c(cc2F)C(=O)N(C2CCC(=O)NC2=O)C3)C1)c1ccc(C2(C#N)CC2)cc1` (stereo not shown) [Compound 39], for which the IC50 is < 100 nM in assay [4] (Homo sapiens) and 501 to 2000 nM in assay [2] (setting [5]). For the same compound, the “BRD4 (% degradation)” value in assay [1] is reported as “C (49%-20% of the target protein was degraded)”. The “AR (% degradation)” value in assay [3] is listed as “C (49%-20% of the target protein was degraded)”.
Turning to `Cc1ccc(-c2c(C)noc2C)cc1N(CCCCNc1cc2c(cc1F)C(=O)N(C1CCC(=O)NC1=O)C2)c1ccc(C2(C#N)CC2)cc1` (stereo not shown) [Compound 43, 1-(4-((5-(3,5-Dimethylisoxazol-4-yl)-2-methylphenyl)(4-((2-(2,6-dioxopiperidin-3-yl)-6-fluoro-1-oxoisoindolin-5-yl)amino)butyl)amino)phenyl)cyclopropane-1-nitrile], the IC50 in assay [4] (Homo sapiens) is < 100 nM; in assay [2] (setting [5]) it was 501 to 2000 nM. The “BRD4 (% degradation)” value in assay [1] is “C (49%-20% of the target protein was degraded)”. For the same compound, the “AR (% degradation)” value in assay [3] is given as “B (79%-50% of the target protein was degraded)”.
Regarding `Cc1ccc(-c2c(C)noc2C)cc1N(CCCCCNc1ccc2c(c1)CN(C1CCC(=O)NC1=O)C2=O)c1ccc(C#N)c(Cl)c1` (stereo not shown) [Compound 63, 2-chloro-4-((5-(3,5-dimethylisoxazol-4-yl)-2-methylphenyl)(5-((2-(2,6-dioxopiperidin-3-yl)-1-oxoisoindolin-5-yl)amino)pentyl)amino)benzonitrile], the IC50 was < 100 nM in assay [4] (Homo sapiens) and < 100 nM in assay [2] (LNCaP/AR, 144 h). Besides, the “BRD4 (% degradation)” value in assay [1] is listed as “C (49%-20% of the target protein was degraded)”. In addition, the “AR (% degradation)” value in assay [3] is given as “C (49%-20% of the target protein was degraded)”.
Turning to `Cc1ccc(-c2c(C)noc2C)cc1N(c1ccc(C2(C#N)CC2)cc1)C1CN([C@H]2C[C@@H](Nc3cc4c(cc3F)CN([C@H]3CCC(=O)NC3=O)C4=O)C2)C1` [Compound 68, 1-(4-((5-(3,5-dimethylisoxazol-4-yl)-2-methylphenyl)(1-((1s,3s)-3-((2-(2,6-dioxopiperidin-3-yl)-6-fluoro-3-oxoisoindolin-5-yl)amino)cyclobutyl)azetidin-3-yl)amino)phenyl)cyclopropane-1-nitrile], the IC50 in assay [4] and in assay [2] (setting [6]) was < 100 nM throughout. Further, the “BRD4 (% degradation)” value in assay [1] is “A (>80% of the target protein was degraded)”. For the same compound, the “AR (% degradation)” value in assay [3] was “D (<20% of the target protein was degraded)”.
As to `Cc1ccc(-c2c(C)noc2C)cc1N(c1ccc(C2(C#N)CC2)cc1)C1CN([C@H]2C[C@H](Nc3cc4c(cc3F)CN([C@@H]3CCC(=O)NC3=O)C4=O)C2)C1` [Compound 70], the IC50 in assay [4] is < 100 nM; in assay [2] (setting [6]), 501 to 2000 nM. In addition, the “BRD4 (% degradation)” value in assay [1] was “C (49%-20% of the target protein was degraded)”. For the same compound, in assay [3], the “AR (% degradation)” value is listed as “C (49%-20% of the target protein was degraded)”.
Turning to `Cc1ccc(-c2c(C)noc2C)cc1N(CC(C)OC1CCN(c2ccc3c(c2)C(=O)N(C2CCC(=O)NC2=O)C3=O)CC1)c1ccc(C2(C#N)CC2)cc1` (stereo not shown) [Compound 106], the values for the IC50 in assay [4] (Homo sapiens) and in assay [2] (setting [5]) were < 100 nM and 501 to 2000 nM, respectively. For the same compound, the “BRD4 (% degradation)” value in assay [1] is “B (79%-50% of the target protein was degraded)”. In addition, the “AR (% degradation)” value in assay [3] is recorded as “C (49%-20% of the target protein was degraded)”.
For `Cc1ccc(-c2c(C)noc2C)cc1N(CCOC1(C)CN(c2cc3c(cc2F)C(=O)N(C2CCC(=O)NC2=O)C3=O)C1)c1ccc(C2(C#N)CC2)cc1` (stereo not shown) [Compound 111, 1-(4-((5-(3,5-Dimethylisoxazol-4-yl)-2-methylphenyl)(2-((1-(2-(2,6-dioxopiperidin-3-yl)-6-fluoro-1,3-dioxoisoindolin-5-yl)-3-methylazetidin-3-yl)oxy)ethyl)amino)phenyl)cyclopropanecarbonitrile], in that order: 101 to 500 nM, > 2000 nM, “D (<20% of the target protein was degraded)” and “D (<20% of the target protein was degraded)”.
Taken in the same sequence, the figures for `Cc1ccc(-c2c(C)noc2C)cc1N(CCOC1(C)CN(c2cc3c(cc2F)C(=O)N(C2CCC(=O)NC2=O)C3)C1)c1ccc(C2(C#N)CC2)cc1` (stereo not shown) [Compound 113, 1-(4-((5-(3,5-Dimethylisoxazol-4-yl)-2-methylphenyl)(2-((1-(2-(2,6-dioxopiperidin-3-yl)-6-fluoro-1-oxoisoindolin-5-yl)-3-methylazetidin-3-yl)oxy)ethyl)amino)phenyl)cyclopropanecarbonitrile] were 501 to 2000 nM, 501 to 2000 nM, “C (49%-20% of the target protein was degraded)” and “D (<20% of the target protein was degraded)”.
For the compound `Cc1ccc(-c2c(C)noc2C)cc1N(CC1CCN(CCNc2ccc3c(c2)C(=O)N(C2CCC(=O)NC2=O)C3=O)CC1)c1ccc(C2(C#N)CC2)cc1` (stereo not shown) [Compound 117], the IC50 in assay [4] (Homo sapiens) is < 100 nM; in assay [2] (setting [5]), 501 to 2000 nM. The “BRD4 (% degradation)” value in assay [1] is “B (79%-50% of the target protein was degraded)”. Besides, the “AR (% degradation)” value in assay [3] was “D (<20% of the target protein was degraded)”.
As for `Cc1ccc(-c2c(C)noc2C)cc1N(CCCCCNc1ccc2c(c1)CN(C1CCC(=O)NC1=O)C2=O)c1ccc(C2(C#N)CC2)cc1` (stereo not shown) [Compound 145, 1-(4-((5-(3,5-dimethylisoxazol-4-yl)-2-methylphenyl)(5-((2-(2,6-dioxopiperidin-3)-1-isoindolinone-5-yl))amino)pentyl)amino)phenylcyclopropanecarbonitrile], the “BRD4 (% degradation)” value in assay [1] is recorded as “C (49%-20% of the target protein was degraded)”. Moreover, the IC50 in assay [2] (setting [5]) is < 100 nM. For the same compound, in assay [3], the “AR (% degradation)” value is listed as “C (49%-20% of the target protein was degraded)”.
As to `Cc1ccc(-c2c(C)noc2C)cc1N(CCCCCNc1ccc2c(c1)C(=O)N(C1CCC(=O)NC1=O)C2=O)c1ccc(C2(C#N)CC2)cc1` (stereo not shown) [Compound 147, 1-(4-((5-(3,5-Dimethylisoxazol-4-yl)-2-methylphenyl)(5-((2-(2,6-dioxopiperidin-3)-1,3-dicarbonylisoindolin-5))amino)pentyl)amino)phenylcyclopropanecarbonitrile], the “BRD4 (% degradation)” value in assay [1] is “A (>80% of the target protein was degraded)”. Further, the IC50 in assay [2] (setting [5]) was < 100 nM. Also, the “AR (% degradation)” value in assay [3] is “C (49%-20% of the target protein was degraded)”.
